Data: ChEMBL document CHEMBL1255299, “Killing of Neisseria gonorrhoeae, Streptococcus agalactiae (group B streptococcus), Haemophilus ducreyi, and vaginal Lactobacillus by 3-O-octyl-sn-glycerol” (2008)
Active and inactive are the calls of the source. The rule behind the calls is not given here.

Key:
Neisseria gonorrhoeae [1] = assay: Microbicidal activity against Neisseria gonorrhoeae ATCC 49226 after 30 mins; assay type: functional; details: ATCC 49226, 0.5 h
Neisseria gonorrhoeae [2] = assay: Microbicidal activity against Neisseria gonorrhoeae ATCC 19424 after 30 mins; assay type: functional; details: ATCC 19424, 0.5 h
Lactobacillus crispatus [3] = assay: Microbicidal activity against Lactobacillus crispatus after 30 mins; assay type: functional; details: 0.5 h
Lactobacillus iners = assay: Microbicidal activity against Lactobacillus iners after 30 mins; assay type: functional
Lactobacillus jensenii [4] = assay: Microbicidal activity against Lactobacillus jensenii after 30 mins; assay type: functional; details: 0.5 h
Lactobacillus jensenii [5] = assay: Antimicrobial activity against Lactobacillus jensenii ATCC 25258 at 4.4 mM in presence of 0.3 mM human serum albumin; assay type: functional
Lactobacillus jensenii [6] = assay: Antimicrobial activity against Lactobacillus jensenii ATCC 25258 at 4.4 mM in presence of 0.5 mM human serum albumin; assay type: functional
Neisseria gonorrhoeae [7] = assay: Antimicrobial activity against Neisseria gonorrhoeae ATCC 49226 at 4.4 mM in presence of 0.5 mM human serum albumin; assay type: functional, organism-based
Lactobacillus crispatus [8] = assay: Antimicrobial activity against Lactobacillus crispatus ATCC 20225 at 4.4 mM in presence of 0.5 mM human serum albumin; assay type: functional
Pseudomonas aeruginosa [9] = assay: Antimicrobial activity against Pseudomonas aeruginosa at 4.4 mM in presence of 0.4 mM human serum albumin; assay type: functional, organism-based
Pseudomonas aeruginosa [10] = assay: Antimicrobial activity against Pseudomonas aeruginosa at 4.4 mM in presence of 0.5 mM delipidated human serum albumin; assay type: functional, organism-based
Lactobacillus crispatus [11] = assay: Antimicrobial activity against Lactobacillus crispatus ATCC 20225 at 4.4 mM in presence of 0.1 mM human serum albumin; assay type: functional
Streptococcus agalactiae [12] = assay: Microbicidal activity against Streptococcus agalactiae serotype 1A after 30 mins; assay type: functional; details: serotype IA, 0.5 h
Streptococcus agalactiae [13] = assay: Microbicidal activity against Streptococcus agalactiae serotype III after 30 mins; assay type: functional; details: 0.5 h
Lactobacillus jensenii [14] = assay: Antimicrobial activity against Lactobacillus jensenii ATCC 25258 at 4.4 mM in presence of 0.05 mM human serum albumin; assay type: functional
Lactobacillus crispatus [15] = assay: Antimicrobial activity against Lactobacillus crispatus ATCC 33197 at 4.4 mM in presence of 0.7 mM human serum albumin; assay type: functional
Lactobacillus jensenii [16] = assay: Antimicrobial activity against Lactobacillus jensenii ATCC 25258 at 4.4 mM in presence of 0.1 mM human serum albumin; assay type: functional
Lactobacillus crispatus [17] = assay: Antimicrobial activity against Lactobacillus crispatus ATCC 33197 at 4.4 mM in presence of 0.6 mM human serum albumin; assay type: functional
Lactobacillus crispatus [18] = assay: Antimicrobial activity against Lactobacillus crispatus ATCC 33197 at 4.4 mM in presence of 0.5 mM human serum albumin; assay type: functional
[Haemophilus] ducreyi = Microbicidal activity against Haemophilus ducreyi after 30 mins; assay type: functional; details: 0.5 h
Lactobacillus crispatus [19] = assay: Antimicrobial activity against Lactobacillus crispatus ATCC 33197 at 4.4 mM in presence of 0.1 mM human serum albumin; assay type: functional
Pseudomonas aeruginosa [20] = assay: Antimicrobial activity against Pseudomonas aeruginosa at 4.4 mM in presence of 0.2 mM human serum albumin; assay type: functional, organism-based
Lactobacillus crispatus [21] = assay: Antimicrobial activity against Lactobacillus crispatus ATCC 33197 at 4.4 mM in presence of 0.05 mM human serum albumin; assay type: functional
Streptococcus agalactiae [22] = assay: Microbicidal activity against Streptococcus agalactiae serotype 1B after 30 mins; assay type: functional; details: 0.5 h
Lactobacillus crispatus [23] = assay: Antimicrobial activity against Lactobacillus crispatus ATCC 20225 at 4.4 mM in presence of 0.7 mM human serum albumin; assay type: functional
Neisseria gonorrhoeae [24] = assay: Antimicrobial activity against Neisseria gonorrhoeae ATCC 49226 at 4.4 mM in presence of 0.4 mM human serum albumin; assay type: functional, organism-based
Streptococcus agalactiae [25] = assay: Microbicidal activity against Streptococcus agalactiae serotype V after 30 mins; assay type: functional; details: 0.5 h
Streptococcus agalactiae [26] = assay: Microbicidal activity against Streptococcus agalactiae serotype II after 30 mins; assay type: functional; details: 0.5 h
Lactobacillus crispatus [27] = assay: Antimicrobial activity against Lactobacillus crispatus ATCC 20225 at 4.4 mM in presence of 0.6 mM human serum albumin; assay type: functional
Neisseria gonorrhoeae [28] = assay: Antimicrobial activity against Neisseria gonorrhoeae ATCC 49226 at 4.4 mM in presence of 0.05 mM human serum albumin; assay type: functional, organism-based
Lactobacillus jensenii [29] = assay: Antimicrobial activity against Lactobacillus jensenii ATCC 25258 at 4.4 mM in presence of 0.4 mM human serum albumin; assay type: functional
Lactobacillus jensenii [30] = assay: Antimicrobial activity against Lactobacillus jensenii ATCC 25258 at 4.4 mM in presence of 0.6 mM human serum albumin; assay type: functional
Neisseria gonorrhoeae [31] = assay: Antimicrobial activity against Neisseria gonorrhoeae ATCC 49226 at 4.4 mM in presence of 0.3 mM human serum albumin; assay type: functional, organism-based
Lactobacillus jensenii [32] = assay: Antimicrobial activity against Lactobacillus jensenii ATCC 25258 at 4.4 mM in presence of 0.2 mM human serum albumin; assay type: functional
Lactobacillus crispatus [33] = assay: Antimicrobial activity against Lactobacillus crispatus ATCC 20225 at 4.4 mM in presence of 0.2 mM human serum albumin; assay type: functional
Neisseria gonorrhoeae [34] = assay: Antimicrobial activity against Neisseria gonorrhoeae ATCC 49226 at 4.4 mM in presence of 0.2 mM human serum albumin; assay type: functional, organism-based
Pseudomonas aeruginosa [35] = assay: Antimicrobial activity against Pseudomonas aeruginosa at 4.4 mM in presence of 0.2 mM delipidated human serum albumin; assay type: functional, organism-based
Lactobacillus jensenii [36] = assay: Antimicrobial activity against Lactobacillus jensenii ATCC 25258 at 4.4 mM in presence of 0.7 mM human serum albumin; assay type: functional
Pseudomonas aeruginosa [37] = assay: Antimicrobial activity against Pseudomonas aeruginosa at 4.4 mM in presence of 0.1 mM delipidated human serum albumin; assay type: functional, organism-based
Pseudomonas aeruginosa [38] = assay: Antimicrobial activity against Pseudomonas aeruginosa at 4.4 mM in presence of 0.1 mM human serum albumin; assay type: functional, organism-based
Pseudomonas aeruginosa [39] = assay: Antimicrobial activity against Pseudomonas aeruginosa at 4.4 mM in presence of 0.6 mM delipidated human serum albumin; assay type: functional, organism-based
Lactobacillus vaginalis = assay: Microbicidal activity against Lactobacillus vaginalis after 30 mins; assay type: functional
Lactobacillus crispatus [40] = assay: Antimicrobial activity against Lactobacillus crispatus ATCC 20225 at 4.4 mM in presence of 0.3 mM human serum albumin; assay type: functional
Lactobacillus crispatus [41] = assay: Antimicrobial activity against Lactobacillus crispatus ATCC 33197 at 4.4 mM in presence of 0.2 mM human serum albumin; assay type: functional
Pseudomonas aeruginosa [42] = assay: Antimicrobial activity against Pseudomonas aeruginosa at 4.4 mM in presence of 0.4 mM delipidated human serum albumin; assay type: functional, organism-based
Lactobacillus crispatus [43] = assay: Antimicrobial activity against Lactobacillus crispatus ATCC 20225 at 4.4 mM in presence of 0.4 mM human serum albumin; assay type: functional
Neisseria gonorrhoeae [44] = assay: Antimicrobial activity against Neisseria gonorrhoeae ATCC 49226 at 4.4 mM in presence of 0.1 mM human serum albumin; assay type: functional, organism-based
Pseudomonas aeruginosa [45] = assay: Antimicrobial activity against Pseudomonas aeruginosa at 4.4 mM in presence of 0.5 mM human serum albumin; assay type: functional, organism-based
Lactobacillus crispatus [46] = assay: Antimicrobial activity against Lactobacillus crispatus ATCC 20225 at 4.4 mM in presence of 0.05 mM human serum albumin; assay type: functional
Neisseria gonorrhoeae [47] = assay: Antimicrobial activity against Neisseria gonorrhoeae ATCC 49226 at 4.4 mM in presence of 0.6 mM human serum albumin; assay type: functional, organism-based
Streptococcus agalactiae [48] = assay: Microbicidal activity against Streptococcus agalactiae serotype IV after 30 mins; assay type: functional; details: 0.5 h
Pseudomonas aeruginosa [49] = assay: Antimicrobial activity against Pseudomonas aeruginosa at 4.4 mM in presence of 0.3 mM delipidated human serum albumin; assay type: functional, organism-based
Lactobacillus crispatus [50] = assay: Antimicrobial activity against Lactobacillus crispatus ATCC 33197 at 4.4 mM in presence of 0.3 mM human serum albumin; assay type: functional
Pseudomonas aeruginosa [51] = assay: Antimicrobial activity against Pseudomonas aeruginosa at 4.4 mM in presence of 0.6 mM human serum albumin; assay type: functional, organism-based
Lactobacillus crispatus [52] = assay: Antimicrobial activity against Lactobacillus crispatus ATCC 33197 at 4.4 mM in presence of 0.4 mM human serum albumin; assay type: functional
Pseudomonas aeruginosa [53] = assay: Antimicrobial activity against Pseudomonas aeruginosa at 4.4 mM in presence of 0.3 mM human serum albumin; assay type: functional, organism-based
Neisseria gonorrhoeae [54] = assay: Antimicrobial activity against Neisseria gonorrhoeae ATCC 49226 at 4.4 mM in presence of 0.7 mM human serum albumin; assay type: functional, organism-based

CCCCCCCCOC[C@@H](O)CO
MCC (Neisseria gonorrhoeae [1]): 2.5 mM | MCC (Neisseria gonorrhoeae [2]): 2.5 mM | MCC (Lactobacillus crispatus [3]): 5 mM | MCC (Lactobacillus iners): 4 mM | MCC (Lactobacillus jensenii [4]): 3 mM

CCCCCCCCOC[C@H](O)CO
Activity (Lactobacillus jensenii [5]): Active | Activity (Lactobacillus jensenii [6]): inactive | Activity (Neisseria gonorrhoeae [7]): Active | Activity (Lactobacillus crispatus [8]): inactive | Activity (Pseudomonas aeruginosa [9]): Active | MCC (Neisseria gonorrhoeae [1]): 2.5 mM | Activity (Pseudomonas aeruginosa [10]): inactive | Activity (Lactobacillus crispatus [11]): Active | MCC (Streptococcus agalactiae [12]): 5 mM | MCC (Streptococcus agalactiae [13]): 5 mM | Activity (Lactobacillus jensenii [14]): Active | MCC (Neisseria gonorrhoeae [2]): 2.5 mM | Activity (Lactobacillus crispatus [15]): inactive | Activity (Lactobacillus jensenii [16]): Active | Activity (Lactobacillus crispatus [17]): inactive | Activity (Lactobacillus crispatus [18]): inactive | MCC ([Haemophilus] ducreyi): 1.25 mM | Activity (Lactobacillus crispatus [19]): Active | Activity (Pseudomonas aeruginosa [20]): Active | Activity (Lactobacillus crispatus [21]): Active | MCC (Streptococcus agalactiae [22]): 5 mM | Activity (Lactobacillus crispatus [23]): inactive | Activity (Neisseria gonorrhoeae [24]): Active | MCC (Streptococcus agalactiae [25]): 5 mM | MCC (Streptococcus agalactiae [26]): 5 mM | Activity (Lactobacillus crispatus [27]): inactive | Activity (Neisseria gonorrhoeae [28]): Active | Activity (Lactobacillus jensenii [29]): inactive | Activity (Lactobacillus jensenii [30]): inactive | Activity (Neisseria gonorrhoeae [31]): Active | Activity (Lactobacillus jensenii [32]): Active | Activity (Lactobacillus crispatus [33]): Active | Activity (Neisseria gonorrhoeae [34]): Active | Activity (Pseudomonas aeruginosa [35]): inactive | Activity (Lactobacillus jensenii [36]): inactive | Activity (Pseudomonas aeruginosa [37]): Active | Activity (Pseudomonas aeruginosa [38]): Active | MCC (Lactobacillus crispatus [3]): 5 mM | Activity (Pseudomonas aeruginosa [39]): inactive | MCC (Lactobacillus iners): 5 mM | MCC (Lactobacillus vaginalis): > 10 mM | Activity (Lactobacillus crispatus [40]): inactive | Activity (Lactobacillus crispatus [41]): Active | Activity (Pseudomonas aeruginosa [42]): inactive | Activity (Lactobacillus crispatus [43]): inactive | Activity (Neisseria gonorrhoeae [44]): Active | Activity (Pseudomonas aeruginosa [45]): inactive | MCC (Lactobacillus jensenii [4]): 5 mM | Activity (Lactobacillus crispatus [46]): Active | Activity (Neisseria gonorrhoeae [47]): Active | MCC (Streptococcus agalactiae [48]): 5 mM | Activity (Pseudomonas aeruginosa [49]): inactive | Activity (Lactobacillus crispatus [50]): inactive | Activity (Pseudomonas aeruginosa [51]): inactive | Activity (Lactobacillus crispatus [52]): inactive | Activity (Pseudomonas aeruginosa [53]): Active | Activity (Neisseria gonorrhoeae [54]): inactive
